In paper PMC10876669, “Substrate promiscuity of inositol 1,4,5-trisphosphate kinase driven by structurally-modified ligands and active site plasticity” (Nature Communications, 2024):
Several values for one entry are separate records, joined by “and”; a condition that tells them apart may be missing. Equal values may be shown once.

Biological target: T1, IP3K-KD (human IP3K-KD A isoform, residues 187–461) (Homo sapiens, UniProt P23677)
T1 construct: human IP3K-KD A isoform (residues 187–461); GST (cleaved yes); made in house; host or cells: Escherichia coli BL21 star (DE3)
Assay: Fluorescence thermal shift analysis (Tycho NT.6, inflection temperature Ti)
Assay type: binding
Details: for Ti, transition 1 (mean inflection temperature) / Ti, transition 2 (mean inflection temperature): 10 μM IP3K-KD, 100 μM chiral or 200 μM racemic ligand, AMP-PNP or ADP, 100 μM MgCl2; for Ti, transition 1 (mean inflection temperature) / Ti, transition 2 (mean inflection temperature) / ΔTi, transition 1 / ΔTi, transition 2: mean ± SD, n=3; for ΔTi, transition 1: Ti minus Ti of apo IP3K-KD (44.4); for ΔTi, transition 2: Ti minus Ti of apo IP3K-KD (53.8); for Transition 1 Ti, individual measurement / Transition 2 Ti, individual measurement: source data of Fig. 6b/6c, single replicates; for Transition 1 Dti (Ti-Ti Apo) / Transition 1 Ti Mean / Transition 2 DTi (Ti-Ti Apo) / Transition 2 Ti Mean: source data of Fig. 6c, N 3; for Binding to IP3K (in words): Fig. 6b,c; for Stabilization of IP3K-KD by ligand (in words): thermal shift, Fig. 6c
Procedure: A construct encoding human IP3K-KD A isoform (residues 187–461) into pOPTG vector was used[16]. The protein was expressed in Escherichia coli BL21 star (DE3) strain. Cells were grown at 37 °C to OD600 = 1.0 then induced with 0.4 mM IPTG for 18 h at 16 °C. Protein purification was performed by adapting the reported protocol. Cells were resuspended in buffer A (10 mM Tris pH 7.5 [4 °C], 200 mM NaCl and 2 mM DTT) and disrupted by sonication. Clarified cell lysate was diluted 1/4 in buffer B (10 mM Tris pH 7.5 [4 °C] and 2 mM DTT) and loaded into a 5 mL HiTrap heparin column (GE Healthcare) washed by buffer C (20 mM Tris pH 7.5, 50 mM NaCl and 2 mM DTT), and eluted with a 0.05 M–1 M salt gradient. The eluted sample was subsequently loaded on to a 5 mL glutathione–Sepharose HP column (GE Healthcare), washed with buffer A and eluted with reduced glutathione 10 mM (Sigma-Aldrich) in buffer A. The GST tag was cleaved with home-made TEV (tobacco etch virus) protease overnight at 4 °C, (1:40 TEV/protein mass ratio). After glutathione removal with a PD10 column, the cleaved protein was further purified using a 5 mL glutathione–Sepharose HP column (GE Healthcare) followed by gel filtration on a 16/600 Superdex200 (GE Healthcare) column equilibrated in buffer D (20 mM Tris pH 7.5 [4 °C], 0.05 M (NH4)2SO4 and 2 mM DTT). Protein samples were analyzed by SDS/PAGE, concentrated around 18 mg/mL and stored at −80 °C until use.
Thermal protein denaturation was documented by recording intrinsic protein fluorescence at 330 and 350 nm wavelengths. The fluorescence recorded in each thermal run is plotted as 350/330 nm ratio and used to calculate the Inflection Temperature (Ti). Ti is the temperature at which a protein undergoes a transition in its folding state. This calculation is performed automatically by the Tycho NT.6 software. The protocol optimized for this procedure, involves a heating time of 2 min, a sample volume of 10 μl placed in a very thin capillary, and a temperature ramp from 35 °C (308 K) to 95 °C (368 K). For the experiment, IP3K-KD was diluted with buffer D to achieve a concentration of 0.31 mg/mL (10 μM). It was then mixed with 100 μM of chiral ligands or 200 μM of racemic ligands (all synthesized as stated in this work except InsP3 and InsP4 that were commercial from Avanti Polar Lipids), AMP-PNP (substrate analogues) or ADP (product-like ligands) and 100 μM MgCl2. Microsoft Excel was used to calculate and plot ΔTi values and standard deviations.

T1 sequence (P23677 187-461): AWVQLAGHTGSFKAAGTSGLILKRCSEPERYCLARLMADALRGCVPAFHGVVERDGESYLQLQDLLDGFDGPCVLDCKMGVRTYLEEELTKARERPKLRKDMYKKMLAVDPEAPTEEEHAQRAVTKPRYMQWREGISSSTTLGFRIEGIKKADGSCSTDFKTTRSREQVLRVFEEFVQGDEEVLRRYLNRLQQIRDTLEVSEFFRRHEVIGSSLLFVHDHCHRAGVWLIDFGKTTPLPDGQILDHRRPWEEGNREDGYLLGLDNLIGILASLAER

| SMILES | Ti, transition 1 (mean inflection temperature) | Ti, transition 2 (mean inflection temperature) | ΔTi, transition 1 | ΔTi, transition 2 | Transition 1 Ti, individual measurement | Transition 2 Ti, individual measurement | Transition 1 Dti (Ti-Ti Apo) | Transition 1 Ti Mean | Transition 2 DTi (Ti-Ti Apo) | Transition 2 Ti Mean | Binding to IP3K (in words) | Stabilization of IP3K-KD by ligand (in words) |
| --- | --- | --- | --- | --- | --- | --- | --- | --- | --- | --- | --- | --- |
| O=P(O)(O)O[C@@H]1[C@@H](O)[C@@H](O)[C@@H](OP(=O)(O)O)[C@H](OP(=O)(O)O)[C@H]1O [2-s, D-myo-inositol 1,4,6-trisphosphate] | 53.1 ± 0.3 ºC | 58.4 ± 0.2 ºC | 8.7 ± 0.4 ºC | 4.6 ± 0.2 ºC | 53.1 and 52.8 and 53.3 | 58.2 and 58.5 and 58.4 | 8.7 | 53.1 | 4.6 | 58.4 | – | – |
| O=P(O)(O)O[C@@H]1[C@H](O)[C@@H](O)[C@@H](OP(=O)(O)O)[C@H](OP(=O)(O)O)[C@H]1O [4-s, L-chiro-inositol 2,3,5-trisphosphate] | 51.7 ± 0.1 ºC | 57.3 ± 0.1 ºC | 7.3 ± 0.3 ºC | 3.5 ± 0.2 ºC | 51.8 and 51.7 (2×) | 57.2 and 57.3 (2×) | 7.3 | 51.7 | 3.5 | 57.3 | – | – |
| CO[C@@H]1O[C@H](CO)[C@@H](O[C@H]2[C@H](O)[C@H](O)[C@@H](OP(=O)(O)O)[C@H](OP(=O)(O)O)[C@H]2O)[C@H]1OP(=O)(O)O [compound 9, D-chiro-inositol ribophostin] | 44.5 ± 0.4 ºC | 54.5 ± 0.1 ºC | 0.1 ± 0.5 ºC | 0.7 ± 0.2 ºC | 44.2 and 44.9 and 44.5 | 54.5 (2×) and 54.4 | 0.133 | 44.5 | 0.667 | 54.5 | do not, or barely, bind IP3K | failure to obtain crystal complexes or observe protein stabilization |
| O=P(O)(O)O[C@@H]1[C@@H](O)[C@H](OP(=O)(O)O)C[C@@H](O)[C@H]1OP(=O)(O)O [3-s, D-3-deoxy-myo-inositol 1,4,6-trisphosphate] | 52.0 ± 0.2 ºC | 57.4 ± 0.1 ºC | 7.6 ± 0.3 ºC | 3.6 ± 0.2 ºC | 52.1 and 51.8 and 52.0 | 57.4 (2×) and 57.5 | 7.6 | 52.0 | 3.6 | 57.4 | – | – |
| CO[C@@H]1O[C@H](CO)[C@@H](O[C@H]2O[C@H](CO)[C@@H](OP(=O)(O)O)[C@H](OP(=O)(O)O)[C@H]2O)[C@H]1OP(=O)(O)O [compound 8, ribophostin] | 44.2 ± 0.2 ºC | 54.1 ± 0.1 ºC | -0.2 ± 0.3 ºC | 0.3 ± 0.2 ºC | 44.2 and 44.1 and 44.4 | 54.1 (2×) and 54.2 | -0.167 | 44.2 | 0.333 | 54.1 | do not, or barely, bind IP3K | failure to obtain crystal complexes or observe protein stabilization |
